Test results: patent US12421222B2 (AUGUSTINE THERAPEUTICS, priority 2021, dated 2025)

Tested on: acetylated tubulin (Lys40) in HeLa cells
Test: Acetylated α-tubulin measurement in vitro (immunocytochemistry)
Assay type: cell-based
Conditions: Homo sapiens, 6 hours incubation, acetylated tubulin (Lys40) by immunocytochemistry, read-out: IC50 (Tubulin deacetylation)
Description: HeLa cells were cultured in UltraCulture serum-free medium (Lonza) supplemented with 2 mM glutamine (Lonza). Assays were performed at 96-well or 384-well format, differences in assay protocols are detailed in Table 6. Cells per well were plated and incubated overnight at 37° C. overnight in a humidified atmosphere containing 5% CO2. Cell density and seeding volumes are detailed in Table 6. Compounds (dissolved in 100% DMSO) or DMSO (vehicle) were added manually by diluting them in culture medium at 10× final assay concentration and adding 10 μL to cells (96-well protocol). Alternatively, 50 nL compound was added directly to the cell culture using the Echo650 (Labcyte) (384-well protocol). In this assay, the final assay concentration of DMSO is 0.1%-0.4%. Trichostatin A (TSA) was used as a positive control. Cells were incubated with compounds at 37° C. in a humidified atmosphere containing 5% CO2 for 6 hours. Levels of acetylated tubulin (Lys40) were assessed by immunocytochemistry using target-specific antibodies. Cells were fixed with 4% PFA at RT as detailed in Table 6. After 2-3 wash steps with PBS, cells were permeabilized with 0.5% Triton in PBS at RT for 10 minutes followed by 1-2 washes with PBS. To avoid non-specific antibody staining, cells were blocked with 3% BSA in PBS at room temperature for 1 hour. […] Cells were washed 2-3 times with PBS and labelled for 1 h at RT with goat anti-mouse conjugated with Alexa 647 (Thermofisher) and goat anti-rabbit conjugated with Alexa 555 (Thermofisher) secondary antibodies, diluted in 1% BSA to a final concentration of 1:1000. Simultaneously, nuclei were stained with 1:10000-1:15000 Hoechst (Thermofisher). Incubation time and temperature of the primary antibodies are detailed in Table 6. Cells were washed 2-3 times with PBS and they were imaged with the Operetta CLS or Opera Phenix (PerkinElmer). Imaging is further detailed in Table 6. For imaging analysis, the Harmony analysis software (PerkinElmer) was used. Cytoplasmic (defined by total α-tubulin staining) intensities per well were used for α-tubulin (acetylated and total) quantification. Intensities were measured per cell and then averaged per well. Mean intensity levels of acetylated tubulin were normalized to the mean intensity levels of total tubulin. The changes in acetylated tubulin were normalized for each plate using GraphPad Prism software: tubulin acetylation in vehicle (DMSO)-treated cells were set to 0% while tubulin acetylation in TSA-treated cells were set to 100%. EC50 values were calculated using the log(inhibitor) vs. response—Variable slope (four parameters) nonlinear regression in GraphPad Prism software.

SMILES	IC50
Cc1nc(SCC(=O)c2ccc(CNC(=O)C(C)(C)C)s2)c2cnn(C)c2n1 [Example 5, N-((5-(2-((1,6-dimethyl-1H-pyrazolo[3,4-d]pyrimidin-4-yl)thio)acetyl)thiophen-2-yl)methyl)pivalamide]	> 3.33 µM
Cc1nc(SCC(=O)c2ccc(CNC(=O)C(C)(C)C)s2)c2cccnc2n1 [Example 7, N-((5-(2-((2-methylpyrido[2,3-d]pyrimidin-4-yl)thio)acetyl)thiophen-2-yl)methyl)pivalamide]	0.1 to 0.5 µM
Cc1nc(SCC(=O)c2ccc(CNC(=O)C(C)(C)C)s2)c2ccc(Cl)cc2n1 [Example 8, N-((5-(2-((7-chloro-2-methylquinazolin-4-yl)thio)acetyl)thiophen-2-yl)methyl)pivalamide]	> 3.33 µM
Cc1nc(SCC(=O)c2ccc(CNC(=O)C(C)(C)C)s2)c2cc(F)ccc2n1 [Example 9, N-((5-(2-((6-fluoro-2-methylquinazolin-4-yl)thio)acetyl)thiophen-2-yl)methyl)pivalamide]	1 to 3.33 µM
Cc1nc(SCC(=O)c2ccc(CNC(=O)C(C)(C)C)s2)c2ccc(F)cc2n1 [Example 10, N-((5-(2-((7-fluoro-2-methylquinazolin-4-yl)thio)acetyl)thiophen-2-yl)methyl)pivalamide]	1 to 3.33 µM
COc1ccc2c(SCC(=O)c3ccc(CNC(=O)C(C)(C)C)s3)nc(C)nc2c1 [Example 12, N-((5-(2-((7-methoxy-2-methylquinazolin-4-yl)thio)acetyl)thiophen-2-yl)methyl)pivalamide]	1 to 3.33 µM
CN(C)c1nc(SCC(=O)c2ccc(CNC(=O)C(C)(C)C)s2)c2ccccc2n1 [Example 16, N-((5-(2-((2-(dimethylamino)quinazolin-4-yl)thio)acetyl)thiophen-2-yl)methyl)pivalamide]	1 to 3.33 µM
COc1ccc2nc(C)nc(SCC(=O)c3ccc(CNC(=O)C(C)(C)C)s3)c2c1 [Example 17, N-((5-(2-((6-methoxy-2-methylquinazolin-4-yl)thio)acetyl)thiophen-2-yl)methyl)pivalamide]	0.5 to 1 µM
Cc1nc(SCC(=O)c2ccc(CNC(=O)C(C)(C)C)s2)c2ncccc2n1 [Example 18, N-((5-(2-((2-methylpyrido[3,2-d]pyrimidin-4-yl)thio)acetyl)thiophen-2-yl)methyl)pivalamide]	1 to 3.33 µM
CC(C)(C)C(=O)NCc1ccc(C(=O)CSc2nc(C(F)F)nc3ccccc23)s1 [Example 19, N-((5-(2-((2-(difluoromethyl)quinazolin-4-yl)thio)acetyl)thiophen-2-yl)methyl)pivalamide]	1 to 3.33 µM
Cn1ncc2c(SCC(=O)c3ccc(CNC(=O)C(C)(C)C)s3)nc(C(F)(F)F)nc21 [Example 20, N-((5-(2-((1-methyl-6-(trifluoromethyl)-1H-pyrazolo[3,4-d]pyrimidin-4-yl)thio)acetyl)thiophen-2-yl)methyl)pivalamide]	0.1 to 0.5 µM
Cn1ncc2c(SCC(=O)c3ccc(CNC(=O)C(C)(C)C)s3)nc(C(F)F)nc21 [Example 21, N-((5-(2-((6-(difluoromethyl)-1-methyl-1H-pyrazolo[3,4-d]pyrimidin-4-yl)thio)acetyl)thiophen-2-yl)methyl)pivalamide]	1 to 3.33 µM
Cn1cc2c(SCC(=O)c3ccc(CNC(=O)C(C)(C)C)s3)nc(C(F)(F)F)nc2n1 [Example 22, N-((5-(2-((2-methyl-6-(trifluoromethyl)-2H-pyrazolo[3,4-d]pyrimidin-4-yl)thio)acetyl)thiophen-2-yl)methyl)pivalamide]	0.1 to 0.5 µM

Next, values leading:

IC50	SMILES
0.1 to 0.5 µM	CC(NC(=O)CO)c1ccc(C(=O)CSc2nc3cnc(C(F)(F)F)cc3o2)s1 (stereo in doubt) [Example 129, (S)-2-hydroxy-N-(1-(5-(2-((6-(trifluoromethyl)oxazolo[4,5-c]pyridin-2-yl)thio)acetyl)thiophen-2-yl)ethyl)acetamide]
≤ 0.1 µM	O=C(CSc1nc(C(F)(F)F)nc2ncccc12)c1ccc(CN2CCC(O)C2=O)s1 (stereo in doubt) [Example 155, (S)-3-hydroxy-1-((5-(2-((2-(trifluoromethyl)pyrido[2,3-d]pyrimidin-4-yl)thio)acetyl)thiophen-2-yl)methyl)pyrrolidin-2-one]
≤ 0.1 µM	O=C(CSc1nc(C(F)(F)F)nc2ncccc12)c1ccc(CN2CCC(O)C2=O)s1 (stereo in doubt) [Example 156, (R)-3-hydroxy-1-((5-(2-((2-(trifluoromethyl)pyrido[2,3-d]pyrimidin-4-yl)thio)acetyl)thiophen-2-yl)methyl)pyrrolidin-2-one]
0.5 to 1 µM	Cc1ccc2oc(SCC(=O)c3ccc(CNC(=O)C(C)(C)C)s3)nc2n1 [Example 23, N-((5-(2-((5-methyloxazolo[4,5-b]pyridine-2-yl)thio)acetyl)thiophen-2-yl)methyl)pivalamide]
> 3.33 µM	Cn1ncc2c(SCC(=O)c3ccc(CN4CCCC4=O)s3)ncnc21 [Example 25, 1-((5-(2-((1-methyl-1H-pyrazolo[3,4-d]pyrimidin-4-yl)thio)acetyl)thiophen-2-yl)methyl)pyrrolidin-2-one]
1 to 3.33 µM	Cn1ncc2c(SCC(=O)c3ncc(CNC(=O)C(C)(C)C)s3)ncnc21 [Example 27, N-((2-(2-((1-methyl-1H-pyrazolo[3,4-d]pyrimidin-4-yl)thio)acetyl)thiazol-5-yl)methyl)pivalamide]
1 to 3.33 µM	Cn1ncc2c(SCC(=O)c3cc(F)c(CNC(=O)C(C)(C)C)s3)ncnc21 [Example 28, N-((3-fluoro-5-(2-((1-methyl-1H-pyrazolo[3,4-d]pyrimidin-4-yl)thio)acetyl)thiophen-2-yl)methyl)pivalamide]
1 to 3.33 µM	Cn1ncc2c(SCC(=O)c3ccc(CNC(=O)c4ccccc4)s3)ncnc21 [Example 30, N-((5-(2-((1-methyl-1H-pyrazolo[3,4-d]pyrimidin-4-yl)thio)acetyl)thiophen-2-yl)methyl)benzamide]
1 to 3.33 µM	Cn1ncc2c(SCC(=O)c3ccc(CNC(=O)C4CC4)s3)ncnc21 [Example 31, N-((5-(2-((1-methyl-1H-pyrazolo[3,4-d]pyrimidin-4-yl)thio)acetyl)thiophen-2-yl)methyl)cyclopropanecarboxamide]
1 to 3.33 µM	CN(Cc1ccc(C(=O)CSc2ncnc3c2cnn3C)s1)C(=O)C1CC1 [Example 34, N-methyl-N-((5-(2-((1-methyl-1H-pyrazolo[3,4-d]pyrimidin-4-yl)thio)acetyl)thiophen-2-yl)methyl)cyclopropanecarboxamide]
> 3.33 µM	O=C(CSc1nc(C(F)(F)F)nc2ccccc12)c1ccc(CCNC(=O)C2CC2)s1 [Example 36, N-(2-(5-(2-((2-(trifluoromethyl)quinazolin-4-yl)thio)acetyl)thiophen-2-yl)ethyl)cyclopropanecarboxamide]
0.5 to 1 µM	CC(C)(C)C(=O)NCc1ccc(C(=O)CSc2nc(C(F)(F)F)nc3ccccc23)s1 [Example 38, N-((5-(2-((2-(trifluoromethyl)quinazolin-4-yl)thio)acetyl)thiophen-2-yl)methyl)pivalamide]
0.5 to 1 µM	COc1ccc2nc(C)nc(SCC(=O)c3ccc(CNC(=O)C4CC4(F)F)s3)c2c1 (stereo not drawn) [Example 39, 2,2-difluoro-N-((5-(2-((6-methoxy-2-methylquinazolin-4-yl)thio)acetyl)thiophen-2-yl)methyl)cyclopropane-1-carboxamide]
0.5 to 1 µM	COc1ccc2nc(C)nc(SCC(=O)c3ccc(CNC(=O)C(F)(F)C(F)(F)F)s3)c2c1 [Example 40, 2,2,3,3,3-pentafluoro-N-((5-(2-((6-methoxy-2-methylquinazolin-4-yl)thio)acetyl)thiophen-2-yl)methyl)propanamide]
1 to 3.33 µM	Cn1cc2c(SCC(=O)c3ccc(CNC(=O)C4CC4)s3)nc(C(F)(F)F)nc2n1 [Example 41, N-((5-(2-((2-methyl-6-(trifluoromethyl)-2H-pyrazolo[3,4-d]pyrimidin-4-yl)thio)acetyl)thiophen-2-yl)methyl)cyclopropanecarboxamide]
0.1 to 0.5 µM	O=C(CSc1nc(C(F)(F)F)nc2nn(C3CC3)cc12)c1ccc(CNC(=O)C2CC2(F)F)s1 (stereo not drawn) [Example 43, N-((5-(2-((2-cyclopropyl-6-(trifluoromethyl)-2H-pyrazolo[3,4-d]pyrimidin-4-yl)thio)acetyl)thiophen-2-yl)methyl)-2,2-difluorocyclopropane-1-carboxamide]
0.1 to 0.5 µM	O=C(CSc1nc(C(F)(F)F)nc2nn(C3CC3)cc12)c1ccc(CNC(=O)C(F)(F)C(F)(F)F)s1 [Example 44, N-((5-(2-((2-cyclopropyl-6-(trifluoromethyl)-2H-pyrazolo[3,4-d]pyrimidin-4-yl)thio)acetyl)thiophen-2-yl)methyl)-2,2,3,3,3-pentafluoropropanamide]
